# Data published in patent EP2131850B1, “EXTRACTS OF ASTER KORAIENSIS, AND PHARMACEUTICAL COMPOSITION AND FUNCTIONAL FOOD COMPRISING THE SAME” (Korea Institute of Oriental Medicine, priority 2007, dated 2008).
# Tested on: production of advanced glycation endproducts (glycation of bovine serum albumin (BSA))
# Assay: In vitro inhibition of production of advanced glycation endproducts (BSA/fructose/glucose culture, fluorescence)
# Assay type: biochemical
# Details: for Inhibition (%) of production of advanced glycation endproducts Inhibition: cultured at 37 °C for 14 days
# Experimental: For the in vitro analysis of the inhibitory effect cf each cf the leaf and stem extract of Aster koraiensis, the root extract of Aster koraiensis, the flower extract of Aster koraiensis, and the fractions cf each of the extracts, on the production cf advanced glycation endproducts, bovine serum albumin (hereinafter, referred to as BSA; Sigma, USA)) was selected as a protein source. BSA was added to 50 mM phosphate buffer (pH 7.4) to a concentration of 10 mg/mℓ. As a sugar source, a mixture of 0.2 M fructose and 0.2 M glucose was used. The fructose/glucose mixture was added to the prepared BSA solution. As test groups, each of the leaf and stem extract cf Aster koraiensis, the root extract cf Aster koraiensis, the flower extract of Aster koraiensis, and the hexane fraction, ethyl acetate fraction, butanol fraction and water fraction of each cf the extracts, was dissolved in distilled water. Then, each of the solutions was added to the BSA/sugar mixture and cultured at 37 °C for 14 days.
# At this time, 0.02% sodium azide was added as an antibacterial agent. A control group was a culture of the BSA/sugar mixture, and the blank of each cf the test groups and the control group was not cultured after their preparation. Meanwhile, as a positive control for use as an index to determine the superiority cf the inventive material, aminoguanidine was used. Four samples for each of the cultures were prepared to minimize errors. After 14 days, the content of advanced glycation endproducts (AGEs) in each of the cultures was analyzed, and the analysis results were recorded. […] The amount cf advanced glycation endproducts having such properties was measured with a spectrofluorometer (excitation: 350 nm, and emission: 450 nm) to analyze the inhibition of the production of advanced glycation endproducts. […]
# Each of the root extract and flower extract of Aster koraiensis, prepared in Example, were prepared into solutions having concentrations cf 10 µg/mℓ, 25 µg/mℓ and 50 µg/mℓ, respectively. […] After 14 days, the amount of advanced glycation endproducts produced in each of the cultures was measured with a spectrcfluorometer (excitation: 350 nm, and emission: 450 nm), and the measurement results are shown in Table 1 and FIG. 2.
# The inhibition of the production of advanced glycation endproducts is calculated according to the following equation: Inhibition (%) of production = 100-(fluorescentintensityofsamplegroupfluorescentintensityofblankofsamplegroup)/(fluorenscentintensityofcontrolgroup-fluorescentintensityofblankofcontrolgroup)x100 [formula] […]
# After 14 days, the amount cf advanced glycation endproducts produced in each cf the cultures was measured with a spectrcfluorometer (excitation: 350 nm, and emission: 450 nm).
smiles,measurement,setting,value
N=C(N)NN [Aminoguanidine],Inhibition (%) of production of advanced glycation endproducts Inhibition,concentration 18.5 µg/mℓ,12.70 ± 6.12%
same,Inhibition (%) of production of advanced glycation endproducts Inhibition,concentration 55.5 µg/mℓ,39.46 ± 1.91%
same,Inhibition (%) of production of advanced glycation endproducts Inhibition,concentration 74.0 µg/mℓ,50.68 ± 0.51%
same,IC50 inhibitory concentration,"production of advanced glycation endproducts, BSA/sugar mixture, 14 days",72.12 µg/mL
